Laboratory results published in US9452185B2, “Mesenchymal stem cells and supports for tissue regeneration, repair and reconstruction” (THE TEXAS A&M UNIVERSITY SYSTEM, priority 2009, dated 2016).
“Also recorded” adds a separate entry of the source.

Assays:
calvarial defects [1] = experiment: Calvarial defect repair, 50 days (x-ray radio-opacity); format: in vivo, nude mice; details: for repair of cranial lesions (radio-opacity ratio lesioned/contralateral): day 50, 1×10^6 pretreated hMSCs in plasma, further doses day 14, 28, 42
Procedure: Calvarial lesions. MSCs were cultured in the presence of osteogenic base media containing the appropriate inhibitor or vehicle. After 8 days, they were suspended in human plasma and administered to nude mice that had received a circular lesion in the cranium. Subsequent doses of cells were administered by direct injection in plasma/thromboplastin mix.
X-ray imaging and quantification. Cranial bones were imaged by x-ray under anaesthesia. Digital images were be captured on a digital plate and processed on a phosphorimager reader and processed by volume analysis software.
Effects of GSKβ and PPARγ inhibition on repair of an induced cranial defect in mice. Given that BIO and GW accelerated osteogenic differentiation by human MSCs in vitro, experiments were conducted to test whether the treated hMSCs could repair a critical bone defect in vivo. Human MSCs were cultured in the presence of osteogenic medium lacking dex, but containing BIO (200 and 800 nM) or GW (1.0 and 10.0 μM). Calvarial lesions were generated in nude mice and 1×10^6 hMSCs, mixed with human plasma were applied followed by thromboplastin to initiate gelling. The scalp was sutured and the animals were allowed to heal. Initially, short-duration experiments were performed to monitor distribution of the hMSCs, and to ensure the cells had survived the implantation process. GFP-labeled hMSCs were administered and mice were sacrificed after 24 h. Upon histological analysis, a substantial number of GFP-labeled, healthy hMSCs had formed a thick layer over the injury and adjacent bone tissue (FIG. 24A, 24B). The hMSCs could be readily detected with an antibody for membrane localized human β-2 microglobulin (FIG. 24C, 24D). Robust antibody-detection of unmanipulated hMSCs, rather than lentiviral labeling was favored in long term experiments because very low passage hMSCs could be utilized, rather than genetically tagged preparations that had undergone a number of passages. Long term experiments were performed for 50 days with further doses of hMSCs administered at day 14, 28 and 42 by direct injection of a plasma:hMSC mixture under the scalp (FIG. 25A). At day 50, the crania were explanted and x-ray images of the calvarial lesions were taken. The digitized images were then analysed densitometrically to quantify the degree of bone accrual (FIG. 25B). The lesioned side was compared with the contralateral side and data were expressed as the ratio of radio-opacity on the lesioned side to the contralateral side. […] When the sections were stained with anti-β-2 microglobulin, isolated clusters of hMSCs from only control and GW groups were detected (FIGS. 27C and 27D).

hMSCs = experiment: ECM production by hMSC monolayers (nodules, recovered volume, calcium); format: cell-based, human
Procedure: Micro computer aided tomography (μCT) briefly included scanning of identical calvaria over 360° using a 50 kV beam with a camera resolution of 12 μm. Images were captured every 0.4° with flat field correction and frame averaging enabled. Using mock specimens, grayscale ranges were calibrated over intact bone, partially formed bone and radiolucent tissue over a fixed linear range (corresponding to approximately −100 to +1000 Hounsfield units). Axial reconstructions were generated from the scans and quantified using a appropriate CT software. Once again, each reconstruction parameter was identical and performed over a fixed and linear intensity range in each case so as to reproducibly distinguish bone, partial bone and radiolucent tissue. In each case, ring artifact, smoothing, and beam hardening corrections were enabled. Three dimensional renderings for qualitative appraisal were generated using one or more volume software. Measurements of recovered matrix volume were performed using similar parameters, but the beam power was lowered to 30 kV. For extracellular matrix (ECM) production, hMSC monolayers were treated for 8 days with GW9662 or control OBM media in the usual manner described previously. Mineralizing osteogenic media was then added for a further 10 days with changes every 2 days. Hereafter, all volumes refer to a single 150 cm^2 monolayer culture. Monolayers were washed in PBS and frozen at −80° C. to disrupt cell membranes, thawed to ambient temperature and scraped from the culture plate. Recovered cells and ECM were then pelleted by centrifugation (1,800 G) and suspended in 10 mL of lysis buffer consisting of PBS containing 0.1% (v/v) Triton X100, 1 mM MgCl2, 10 μg mL^−1 DNAse I and 10 μg mL^−1 RNAseA. […] Calcium levels in matrices described were determined using an acid hydrolysis ArsenazoIII method previously described by others. […] Colorimetric determination of calcium was performed by addition of Arsenazo III compound and monitoring the change in absorbance at 595 nm using a plate reader.

calvarial defects [2] = experiment: Histology of 50-day calvaria (H&E, tetracycline tracing, blood vessels); format: in vivo, nude mice
Procedure: Histochemistry and immunocytochemistry. For β-catenin localization studies, hMSCs were stained with a cy-3 conjugated anti-β-catenin antibody and nuclei were counterstained with pico-green dye. Specimens were processed as paraffin blocks and 8 longitudinal sections were prepared, deparaffinized and rehydrated, then stained with hematoxylin and eosin. For immunocytochemistry, sections were probed with an anti-human β-2-microglobulin antibody. An upright fluorescent microscope fitted with a high performance camera (and image analysis software was employed for imaging. Tetracycline tracing of in vivo calcium deposition. The tetracycline was imaged using an upright fluorescent microscope fitted with a high performance camera and analyzed using software. Embedding, sectioning and mounting was carried out on non-decalcified material. Semi-quantitative blood vessel measurements. Calvaria were fixed, decalcified and sectioned in paraffin and stained with hematoxylin and eosin as described. Using NIS-Elements image analysis software, the surface area of blood vessels in a defined ROI was calculated and totaled. The values were expressed as the mean of total blood vessel area from 3 animals per group. […] Using NIS-Elements image analysis software, the surface area of blood vessels in the 2D ROI was calculated for each section and totaled. […]

## O=C1Nc2cc(Br)ccc2/C1=C1/Nc2ccccc2/C1=N\O [BIO, bromo-indirubin-3′-mono-oxime]
Calvarial defects [1]
  repair of cranial lesions (radio-opacity ratio lesioned/contralateral): no significant sign of bone repair

## O=C(Nc1ccccc1)c1cc([N+](=O)[O-])ccc1Cl [GW9662, 2-chloro-5-nitro-N-phenyl-benzamide]
hMSCs; GW9662 vs DMSO
  calcium content in recovered ECM: elevated calcium levels; also recorded: substantially more calcium mineral than controls
hMSCs; GW9662 vs vehicle treated cells
  volume of ECM recovered: greater volume of ECM; also recorded: substantial increase in the yield
hMSCs; hMSC cultures, GW9662 treatment
  ECM nodules by phase contrast microscopy: distinct formation of nodules; also recorded: increased
Calvarial defects [2]; day 50
  new bone formation, histology: new bone formation was detected
Calvarial defects [2]; day 50, blood vessels
  ability of MSCs to initiate angiogenesis at trauma sites: had not affected
Calvarial defects [1]; MSCs treated with GW9662 applied to calvaria bone defect
  improvement in healing compared with controls: 2-3 fold
Calvarial defects [1]; after 50 days of repeated cell administration
  lesion healing: about 60%
Calvarial defects [1]; listed as GW
  repair of cranial lesions (radio-opacity ratio lesioned/contralateral): significantly improved; also recorded: profoundly improved healing
